US10023565B2, “N,N′ substituted piperidinamine compounds, and preparation method and usage thereof” (Institute of Pharmacology and Toxicology Academy of …, priority 2013, dated 2018)
Read-outs that look alike come from different tables or passages of the source.

What was measured:
[1] = system: MDA-MB-361; experiment: Antitumor bioactivity evaluation, breast cancer cells (ATPlite); format: cell-based; conditions: Homo sapiens, test sample 5 μM, 72 hours, read-out: Inhibitory Rate % MDA-MB-361
Procedure, shortened: (§1)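 After plating 5000 cells per well and letting them attach for 24 h, compounds are added at a single 5 μM final concentration, either alone or together with lapatinib at 1 μM. Cultures incubate 72 h at 37 °C before ATP content is measured by luminescence.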

[2] = system: SK/Lap^R1.0; experiment: as above; format: cell-based; conditions: Homo sapiens; test sample 5 μM, 72 hours; read-out: Inhibitory Rate % SKLap^R1.0
Procedure, shortened: as §1

[3] = system: SK-BR3; experiment: as above; format: cell-based; conditions: Homo sapiens, SK-BR-3; test sample 5 μM, 72 hours; read-out: Inhibitory Rate % SK-BR3
Procedure, shortened: as §1

[4] = system: BT474; experiment: as above; format: cell-based; conditions: Homo sapiens, BT-474; for inhibition at 5 µM: test sample 5 μM, 72 hours, read-out: Inhibitory Rate % BT474
Procedure, shortened: as §1

[5] = system: MDA-MB-453; experiment: as above; format: cell-based; conditions: Homo sapiens, test sample 5 μM, 72 hours, read-out: Inhibitory Rate % MDA-MB-453
Procedure, shortened: as §1

[6] = system: AsPC-1; experiment: Extended test against tumor cell lines (ATPlite); format: cell-based; conditions: AsPC-1 (pancreatic cancer), 72 hours
Procedure, shortened: (§2)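 Viability is measured by ATP luminescence (ATPlite) after cells plated at 5000/well have been treated for 72 h at 37 °C. Five final concentrations from 4 down to 0.016 μM are tested in triplicate, and survival is expressed relative to untreated control.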

[7] = system: A549; experiment: Extended test against tumor cell lines (ATPlite); format: cell-based; conditions: A549 (lung cancer), 72 hours
Procedure, shortened: as §2

[8] = system: BT/Lap^R1.0; experiment: Antitumor bioactivity evaluation, breast cancer cells (ATPlite); format: cell-based, human; conditions: for inhibition at 5 µM: test sample 5 μM, 72 hours, read-out: Inhibitory Rate % BT/Lap^R1.0
Procedure, shortened: as §1

| IC50 [4] [nM] | IC50 ([8]; Homo sapiens) [nM] | SMILES | inhibition at 5 µM [1] [%] | inhibition at 5 µM [2] [%] | inhibition at 5 µM [3] [%] | inhibition at 5 µM [4] [%] | inhibition at 5 µM [5] [%] | Survival rate ([6]; 0.016 μM) [%] | Survival rate ([6]; 0.063 μM) [%] | Survival rate ([6]; 0.25 μM) [%] | Survival rate ([6]; 1 μM) [%] | Survival rate ([6]; 4 μM) [%] | Survival rate ([7]; 0.016 μM) [%] | Survival rate ([7]; 0.063 μM) [%] | Survival rate ([7]; 0.25 μM) [%] | Survival rate ([7]; 1 μM) [%] | Survival rate ([7]; 4 μM) [%] | IC50 [8] [nM] | inhibition at 5 µM ([8]; Homo sapiens) [%] |
| --- | --- | --- | --- | --- | --- | --- | --- | --- | --- | --- | --- | --- | --- | --- | --- | --- | --- | --- | --- |
| 1040 | 940 | CSc1nccc(N2CCC(N(C)Cc3c(F)cccc3Cl)CC2)n1 [Example 37, N-methyl-N-(2-fluoro-6-chlorobenzyl)-N-[1-(2-methylthiopyrimidin-4-yl)piperidin-4-yl]amine] | 55.9 | 78.3 | 78.9 | 75.5 | 84.2 | 98.8 | 99.5 | 94.1 | 81.7 | 52.3 | 99.5 | 98.5 | 97.6 | 73 | 39.5 | – | 70.7 |
| 1620 | 1680 | CSc1nccc(N2CCC(N(C)Cc3ccc(Cl)cc3Cl)CC2)n1 [Example 40, N-methyl-N-(2,4-dichlorobenzyl)-N-[1-(2-methylthiopyrimidin-4-yl)piperidin-4-yl]amine] | 64.1 | 80.7 | 87.6 | 74.2 | 68.7 | 97.8 | 96.1 | 93.1 | 83.3 | 51.2 | 97.1 | 95.9 | 95.3 | 81.2 | 38 | – | 68.1 |
| 1990 | 1700 | CSc1nccc(N2CCC(N(C)Cc3ccccc3Cl)CC2)n1 [Example 47, N-methyl-N-(2-chlorobenzyl)-N-[1-(2-methylthiopyrimidin-4-yl)piperidin-4-yl]amine] | 27.7 | 16.6 | 31.7 | 60.4 | 66.2 | 100.2 | 94.7 | 92.8 | 85.3 | 53.6 | 98.1 | 95.3 | 93 | 88.7 | 45.9 | – | 58.1 |
| 780 | 700 | CSc1nccc(N2CCC(N(C)Cc3c(Cl)cccc3Cl)CC2)n1 [Example 49, N-methyl-N-(2,6-dichlorobenzyl)-N-[1-(2-methylthiopyrimidin-4-yl)piperidin-4-yl]amine] | 30.1 | 13.5 | 19.7 | 61.5 | 68.9 | 99.1 | 97.5 | 93.8 | 64.4 | 44.3 | 99.9 | 95.1 | 95.2 | 60.5 | 40.1 | – | 58.8 |

| SMILES | IC50 [4] [nM] | IC50 ([8]; Homo sapiens) [nM] | inhibition at 5 µM [1] [%] | inhibition at 5 µM [2] [%] | inhibition at 5 µM [3] [%] | inhibition at 5 µM [4] [%] | inhibition at 5 µM [5] [%] | Survival rate ([6]; 0.016 μM) [%] | Survival rate ([6]; 0.063 μM) [%] | Survival rate ([6]; 0.25 μM) [%] | Survival rate ([6]; 1 μM) [%] | Survival rate ([6]; 4 μM) [%] | Survival rate ([7]; 0.016 μM) [%] | Survival rate ([7]; 0.063 μM) [%] | Survival rate ([7]; 0.25 μM) [%] | Survival rate ([7]; 1 μM) [%] | Survival rate ([7]; 4 μM) [%] | IC50 [8] [nM] | inhibition at 5 µM ([8]; Homo sapiens) [%] |
| --- | --- | --- | --- | --- | --- | --- | --- | --- | --- | --- | --- | --- | --- | --- | --- | --- | --- | --- | --- |
| CSc1nccc(N2CCC(N(C)Cc3ccc(C#N)cc3)CC2)n1 [Example 36, N-methyl-N-(4-cyanobenzyl)-N-[1-(2-methylthiopyrimidin-4-yl)piperidin-4-yl]amine] | 1410 | 1410 | 46.9 | 86.1 | 83.4 | 75.5 | 82.4 | 96.8 | 99.4 | 94.9 | 90.0 | 57.2 | 98.9 | 97.6 | 95.3 | 75.8 | 46.5 | 1470 | 76.2 |
